Reference: US20060241182A1, “Antibiotic, functional cosmetic and functional food containing levulinic acid and their derivatives” (priority 2001, published 2006)
≈ marks a conversion by molar mass, not a printed value. Where two headings read alike, the source gives them in different places.

Legend:
[1] = system: Streptococcus mutans KCTC 3065; experiment: microbe, parasite or virus in culture; details: KCTC3065
Procedure: (§1) Lactococcus garvieae YT-3, Edwardsiella tarda GY-01, Vibrio anguillarum YT-85805, Enterococcus faecium KCTC 3095 and tooth-decaying bacteria of Streptococcus spp. were cultured in Brain heart infusion media at 37° C. with shaking. Anaerobic tooth-decaying bacteria, Streptococcus spp., were cultured with standing in gas generating kit. Anaerobic Propionibacterium acnes KCTC 3326, was cultured in GAM media with standing in gas generating kit.
(§2) Wherein, all the bacteria were cultured for 12˜18 hours.
(§3) MIC of levulinic acid was measured on 96 well plates. Media and levulinic acid (200 mg/ml) mixed and diluted 1:2 fold serially. Dilutants were added on 96 well plate. Equal amount of bacterial suspension (10^6 CFU/ml) was added in each well. Wherein the inoculated bacteria were cultured at 30° C. for 12˜18 hours. The proliferations of bacteria on testing medium were measured to determine MIC against the test bacteria.
(§4) Also, in case of anaerobic bacteria, according to the same method as above, cap tubes were used in place of 96 well plates.

[2] = system: Streptococcus mutans GS-5; experiment: microbe, parasite or virus in culture; details: GS5
Procedure: as §1, §2, §3, §4

[3] = system: Streptococcus salivarius ATCC 13419; experiment: microbe, parasite or virus in culture; details: ATCC13419
Procedure: as §1, §2, §3, §4

[4] = system: Propionibacterium acnes KCTC 3326; experiment: microbe, parasite or virus in culture; details: Cutibacterium acnes, KCTC3326
Procedure: as §1, §2, §3, §4

[5] = system: Streptococcus sobrinus coykendall 6715-1 ATCC 27352; experiment: microbe, parasite or virus in culture; details: ATCC27352
Procedure: as §1, §2, §3, §4

[6] = system: Streptococcus mutans OMZ-175; experiment: microbe, parasite or virus in culture; details: OMZ175
Procedure: as §1, §2, §3, §4

Streptococcus mutans BHT = experiment: microbe, parasite or virus in culture
Procedure: as §1, §2, §3, §4

[7] = system: Streptococcus mutans HS-6; experiment: microbe, parasite or virus in culture; details: HS6
Procedure: as §1, §2, §3, §4

[8] = system: Streptococcus mutans Ingbritt; experiment: microbe, parasite or virus in culture
Procedure: as §1, §2, §3, §4

[9] = system: Streptococcus mutans LM-7; experiment: microbe, parasite or virus in culture; details: LM7
Procedure: as §1, §2, §3, §4

[10] = system: Streptococcus mutans OMZ-176; experiment: microbe, parasite or virus in culture; details: OMZ176
Procedure: as §1, §2, §3, §4

[11] = system: Streptococcus doweni Mfe28; experiment: microbe, parasite or virus in culture
Procedure: as §1, §2, §3, §4

Escherichia coli O157 = experiment: MIC of levulinic acid, serial dilution on 96 well plates; format: cell-based
Procedure: (§5) Also, Bacillus cereus KCTC 1014, Bacillus subtillis IFO 3007, Escherichia coli O 157 and Escherichia coli 1039 were cultured in complex media (0.8% of nutrient broth, 1% of yeast extract, 2% of NaCl and 0.02% of dextrose) at 37° C. with shaking.
as §2, §3

[12] = system: pathogen infecting finny tribe and poultry; details: summary of Table 2
Procedure: as §1, §2, §3

[13] = system: methicillin-resistant Staphylococcus aureus; experiment: microbe, parasite or virus in culture
Procedure: (§6) Staphylococcus aureus KCTC 1621, Pseudomonas aeroginosa KCTC 1636, methicillin-resistant Staphylococcus aureus, Vancomycin resistant Enterococcus and R-Pseudomonas aeroginosa were cultured in tryptic soy broth at 37° C. with shaking.
as §2, §3

[14] = system: Staphylococcus aureus KCTC 1621; experiment: microbe, parasite or virus in culture; details: KCTC1621
Procedure: as §6, §2, §3

[15] = system: vancomycin-resistant Enterococcus; experiment: microbe, parasite or virus in culture
Procedure: as §6, §2, §3

[16] = system: Resistant Pseudomonas aeruginosa; experiment: microbe, parasite or virus in culture
Procedure: as §6, §2, §3

[17] = system: Pseudomonas aeruginosa KCTC 1636; experiment: microbe, parasite or virus in culture; details: KCTC1636
Procedure: as §6, §2, §3

Helicobacter pylori = experiment: microbe, parasite or virus in culture
Procedure: as §2, §3, §4

[18] = system: Saccharomyces cerevisiae breneri heferasse VII; experiment: microbe, parasite or virus in culture
Procedure: (§7) Saccharomyces cerevisiae breneri hefe rasse VIII and Hansenula anomala IFO 0149 were cultured in complex medium (0.3% of yeast extract, 0.3% of nutrient broth, 0.5% of peptone and 0.1% of glucose) at 25° C. with shaking.
as §2, §3

[19] = system: Hansenula anomala IFO 0149; experiment: microbe, parasite or virus in culture; details: IFO0149
Procedure: as §7, §2, §3

Edwardsiella tarda GY-01 = experiment: microbe, parasite or virus in culture; details: GY01
Procedure: as §1, §2, §3

[20] = system: Lactococcus garvieae YT-3; experiment: microbe, parasite or virus in culture; details: YT3
Procedure: as §1, §2, §3

[21] = system: Enterococcus faecium KCTC 3095; experiment: microbe, parasite or virus in culture; details: KCTC3095
Procedure: as §1, §2, §3

[22] = system: Vibrio anguillarum YT-85805; experiment: microbe, parasite or virus in culture; details: YT85805
Procedure: as §1, §2, §3

drug-resistant bacteria = details: summary of Table 1
Procedure: as §6, §1, §2, §3

[23] = system: mouse fibroblast NIH3T3 cells; details: 52 hours
Procedure: Cytotoxicity test of levulinic acid was accomplished by using mouse fibroblast NIH3T3 cells as testing cells. The cells were cultured in medium added 16.3 mg/ml, 12.2 mg/ml, 9.8 mg/ml and 4.9 mg/ml of levulinic acid for 52 hours, respectively.

[24] = system: general bacteria and yeast; details: summary of Table 4
Procedure: as §5, §7, §2, §3

[25] = system: Bacillus subtilis IF0 3007; experiment: microbe, parasite or virus in culture; details: IF03007
Procedure: as §5, §2, §3

[26] = system: Bacillus cereus KCTC 1014; experiment: microbe, parasite or virus in culture; details: KCTC1014
Procedure: as §5, §2, §3

[27] = system: Escherichia coli KCTC 1039; experiment: microbe, parasite or virus in culture; details: KCTC1039
Procedure: as §5, §2, §3

tooth-decaying bacteria = details: summary of Table 3
Procedure: as §1, §2, §3, §4

[28] = system: Salmonella typhimurium KCTC 1925; experiment: microbe, parasite or virus in culture; details: Salmonella enterica
Procedure: as §2, §3

[29] = system: Candida albicans KCTC 7753; experiment: microbe, parasite or virus in culture; details: KCTC7753
Procedure: as §2, §3

CC(=O)CCC(=O)O [levulinic acid]
MIC [1]: 4000 µg/mL (≈ 34.4 mM) | MIC [2]: 5000 µg/mL (≈ 43.1 mM) | MIC [3]: 4000 µg/mL (≈ 34.4 mM) | MIC [4]: 6000 µg/mL (≈ 51.7 mM) | MIC [5]: 4000 µg/mL (≈ 34.4 mM) | MIC [6]: 4000 µg/mL (≈ 34.4 mM) | MIC (Streptococcus mutans BHT): 4000 µg/mL (≈ 34.4 mM) | MIC [7]: 4000 µg/mL (≈ 34.4 mM) | MIC [8]: 4000 µg/mL (≈ 34.4 mM) | MIC [9]: 4000 µg/mL (≈ 34.4 mM) | MIC [10]: 5000 µg/mL (≈ 43.1 mM) | MIC [11]: 4000 µg/mL (≈ 34.4 mM) | MIC (Escherichia coli O157): 2000 µg/mL | MIC against pathogen infecting finny tribe and poultry (range over Table 2) [12]: 0.37˜3.5 mg/ml | MIC [13]: 4000 µg/mL (≈ 34.4 mM) | MIC [14]: 3500 µg/mL (≈ 30.1 mM) | MIC [15]: 3000 µg/mL (≈ 25.8 mM) | MIC [16]: 2500 µg/mL (≈ 21.5 mM) | MIC [17]: 1500 µg/mL (≈ 12.9 mM) | MIC (Helicobacter pylori): 0.78 µg/mL (≈ 0.00672 mM) | MIC [18]: 2500 µg/mL (≈ 21.5 mM) | MIC [19]: 3500 µg/mL (≈ 30.1 mM) | MIC (Edwardsiella tarda GY-01): 3500 µg/mL (≈ 30.1 mM) | MIC [20]: 3500 µg/mL (≈ 30.1 mM) | MIC [21]: 4500 µg/mL (≈ 38.8 mM) | MIC [22]: 3000 µg/mL (≈ 25.8 mM) | MIC against drug-resistant bacteria (range over Table 1) (drug-resistant bacteria): 1.5˜4.5 mg/ml | Cytotoxicity: death / growth of the cells ([23]; medium added 9.8 mg/ml levulinic acid): not died, but their growth were inhibited | Cytotoxicity: growth of the cells versus control cells ([23]; medium containing 4.9 mg/ml levulinic acid): no difference from one of control cells | Cytotoxicity: death / growth of the cells ([23]; medium containing 12.2 mg/ml levulinic acid): died, or their growth were inhibited | Cytotoxicity: death / growth of the cells ([23]; medium containing 16.3 mg/ml levulinic acid): died, or their growth were inhibited | MIC against general bacteria and yeast (range over Table 4) [24]: 1.5˜6 mg/ml | MIC [25]: 1500 µg/mL (≈ 12.9 mM) | MIC [26]: 1500 µg/mL (≈ 12.9 mM) | MIC [27]: 2000 µg/mL (≈ 17.2 mM) | MIC against tooth-decaying bacteria (range over Table 3) (tooth-decaying bacteria): 4˜5 mg/ml | MIC [28]: 370 µg/mL (≈ 3.19 mM) | MIC [29]: 6000 µg/mL (≈ 51.7 mM)
